The values below come from patent US10702495B2, “Method and compositions for treating dystrophies and myotonia” (priority 2017, dated 2020).

One data set relates to dystrophic mdx mice. The following applies: injection; mostly via activation of TRPV1 and TRPA1; cited from earlier work.
For a further data set, the system named is patients with myotonia. The experiment in a line: Disease history: previous treatments for myotonia and myalgia (case reports). The following applies: for outcome of previous treatment of myalgia, patient 2 / outcome of previous treatment of myotonia, patient 2: DM2; for outcome of previous treatment of myalgia, patient 2 / effect of previous treatment on myotonia, patient 6 / outcome of previous treatment of myotonia, patient 2: disease history; for effect of previous treatment on myotonia, patient 6: CLCN1-congenital myotonia. The source says: This person was diagnosed with DM2. As DM2-related comorbidities they have diabetes mellitus type 2 without diabetic neuropathy, and controlled paroxysmal atrial fibrillation. Their main muscular complaints have always been a severe grip myotonia and myotonia of the legs while walking, as well as persistent myalgia especially at lower back. In the last several years they developed a proximal and axial muscle weakness (MRC grade 4). […] After discussing potential risks and benefits, a compassionate use with low dose CBD/THC has been started.
This person was diagnosed with CLCN1-congenital myotonia. They have a severe therapy-resistant grip and generalized myotonia.

With `C=C(C)[C@@H]1CCC(C)=C[C@H]1c1c(O)cc(CCCCC)cc1O` [CBD, Cannabidiol], in the data set with dystrophic mdx mice, the “myotube formation and inflammation” value is “promoted myotube formation and reduced inflammation”. With `CC(C)Cc1ccc(C(C)C(=O)O)cc1` (stereo not shown) [ibuprofen], the “outcome of previous treatment of myalgia, patient 2” value (shortened to “outcome … of myalgia, patient 2”) in the data set with patients with myotonia is recorded as “unsuccessfully treated”. On to `Nc1nnc(-c2cccc(Cl)c2Cl)c(N)n1` [lamotrigine], for which the “effect of previous treatment on myotonia, patient 6” value (“effect … on myotonia, patient 6” for short) in the data set with patients with myotonia is listed as “no relevant improvement of myotonia was obtained”. On to `O=C(NCC1CCCCN1)c1cc(OCC(F)(F)F)ccc1OCC(F)(F)F` (stereo not shown) [flecainid], for which, in the data set with patients with myotonia, the “effect … on myotonia, patient 6” value is given as “no relevant improvement of myotonia was obtained”. The same measure, in the same setting: the value for `Cc1ccc(C(=O)C(C)CN2CCCCC2)cc1` (stereo not shown) [tolperisone] was “no relevant improvement of myotonia was obtained”. Take `Cc1cccc(C)c1OCC(C)N` (stereo not shown) [mexiletine]: in the data set on patients with myotonia, the “effect … on myotonia, patient 6” value is “improved the myotonia”; the “outcome of previous treatment of myotonia, patient 2” value (shortened to “outcome … of myotonia, patient 2”) was “suspended due to inefficacy and risk of cardiac arrhythmias”. Also, the “drug-related side effect of previous treatment, patient 6” value in the data set with patients with myotonia (resolved on drug discontinuation) is recorded as “severe major depression”.

Consider `CC(C)C[C@H](CN)CC(=O)O` [pregabalin], for which, in the data set with patients with myotonia, the “outcome … of myalgia, patient 2” value is on record as “unsuccessfully treated”; the “outcome … of myotonia, patient 2” value was “suspended due to inefficacy and risk of cardiac arrhythmias”. As to `COc1ccccc1OCC(O)COC(N)=O` (stereo not shown) [methocarbamol], the “outcome … of myalgia, patient 2” value in the data set with patients with myotonia is “unsuccessfully treated”. As for `NC(=O)N1c2ccccc2C=Cc2ccccc21` [carbamazepine], in the data set on patients with myotonia, the “effect … on myotonia, patient 6” value was “no relevant improvement of myotonia was obtained”; the “outcome … of myotonia, patient 2” value is “suspended due to inefficacy and risk of cardiac arrhythmias”.
